Results on one compound are retold here after patent US5773430A, “Serine proteinase inhibitory activity by hydrophobic tetracycline” (Research Foundation of State University of New York, priority 1997, dated 1998).

For assay [1], the target named is T1, leukocyte elastase (Homo sapiens, UniProt P08246).
T1 sequence (P08246 30-247): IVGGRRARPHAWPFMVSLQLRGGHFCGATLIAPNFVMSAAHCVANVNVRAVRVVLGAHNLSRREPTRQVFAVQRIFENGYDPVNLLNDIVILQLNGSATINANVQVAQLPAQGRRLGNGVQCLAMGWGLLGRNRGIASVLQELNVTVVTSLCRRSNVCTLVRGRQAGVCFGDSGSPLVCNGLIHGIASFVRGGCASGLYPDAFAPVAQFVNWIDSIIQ
In words: Leukocyte elastase inhibitory activity. The assay is classed as biochemical.

The target of assay [2] is T2, human leukocyte elastase (HLE) (Homo sapiens, UniProt P08246).
T2 sequence (P08246 30-267): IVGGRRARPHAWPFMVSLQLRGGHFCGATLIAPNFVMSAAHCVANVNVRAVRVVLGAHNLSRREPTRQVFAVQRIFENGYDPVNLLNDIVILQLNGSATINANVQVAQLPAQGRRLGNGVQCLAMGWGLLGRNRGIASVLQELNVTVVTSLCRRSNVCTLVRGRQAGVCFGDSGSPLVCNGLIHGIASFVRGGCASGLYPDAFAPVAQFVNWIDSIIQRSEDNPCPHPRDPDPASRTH
In words: ECM degradation mediated by purified HLE. Type of assay: biochemical. The method, then: Direct inhibition of HLE by CMT-3 was determined (Example 2) using a modification of the assay of human leukocyte elastase (HLE) activity described by Ying et al. (Q. Ying, A. R. Rinehart, S. R. Simon, and J. C. Cheronis, "Inhibition of Human Leukocyte Elastase by Ursolic Acid: Evidence for a Hydrophobic Binding Site for Pentacyclic Triterpenes," Biochem. J. 277, 521-526 (1991)) in which the organic solvent and detergent concentrations have been reduced, using a traditional assay of human leukocyte elastase (HLE) activity by measurement of the amidolysis of the chromogenic oligopeptide substrate, methoxysuccinyl-Ala-Ala-Pro-Val-p-nitroanilide. This oligopeptide is generally assumed to occupy the first five subsites of the extended substrate binding domain in HLE. […] When CMT-3 is employed in the assay of ECM degradation mediated by purified HLE rather than live neutrophils, it proves to be an effective inhibitor, with an apparent I50 of ~25-50 μM.
The capacity of CMT-3 to inhibit HLE is not confined to amidolytic assays, as already shown in FIG. 2, in which the degradation of a complete interstitial extracellular matrix by purified HLE is inhibited by CMT-3.

Assay [3] has as its target T2, human leukocyte elastase (HLE). As to the kind of experiment: HLE amidolytic activity (methoxysuccinyl-Ala-Ala-Pro-Val-p-nitroanilide). The assay is classed as biochemical. The following applies: in the presence of 10% dimethylsulfoxide and 0.1% Triton X-100.
Assay [4] relates to human neutrophils (live PMN's). As to the kind of experiment: Neutrophil (PMN + 0.5 nM PMA)-mediated R22-ECM hydrolysis (3H-proline cpm released in 6 h). Type of assay: cell-based. An excerpt: The activity of various tetracyclines was investigated employing an in vitro assay of inflammatory tissue injury in which human neutrophils are allowed to degrade a biosynthetically prepared complete interstitial stromal extracellular matrix (ECM). A neutrophil is one type of leukocyte (polymorphonuclear leukocyte). […] E. J. Roemer, K. J. Stanton, and S. R. Simon, "In Vitro Assay Systems for Inflammatory Cell-Mediated Damage to Interstitial Extracellular Matrix," In Vitro Toxicol. 7,75-81 (1994); E. J. Roemer, K. J. Stanton, and S. R. Simon, "In Vitro Assay Systems for Cell Interactions With Interstitial Extracellular Matrix," In Vitro Toxicol. 7,209-224 (1994).
The serine proteinase inhibiting activity of tetracyclines was tested using an in vitro assay of inflammatory tissue injury in which human neutrophils (live PMN's) were allowed to degrade a biosynthetically prepared complete interstitial stromal extracellular matrix (ECM) produced by cultured R22 rat heart smooth muscle cells as described by Roemer et al. (E. J. Roemer, K. J. Stanton, and S. R. Simon, "In Vitro Assay Systems for Inflammatory Cell-Mediated Damage to Interstitial Extracellular Matrix," In Vitro Toxicol. 7,75-81 (1994); E. J. Roemer, K. J. Stanton, and S. R. Simon, "In Vitro Assay Systems for Cell Interactions With Interstitial Extracellular Matrix," In Vitro Toxicol. 7,209-224 (1994)). Ten different chemically modified tetracyclines (CMTs) designated CMT-1 through CMT-10 and doxycycline, at concentrations ranging from 5 μM to 50 μM, were added to the ECM simultaneously with a suspension of 2×10^6 viable human PMN/mL in Hank's balanced salts solution (HBSS). In these studies, the ECM was metabolically radiolabeled with ^3 H-proline, and counts solubilized after six hours of incubation were measured and compared with counts released after incubation with PMN alone.

The subject of assay [5] is leukocyte elastase. In words: Leukocyte elastase activity in gingival extracts of LPS-injected rats. Type of assay: in vivo, rat. The following applies: 2 mg or 5 mg CMT-3 daily, oral gavage, six days, succinyl-Ala-Ala-Ala-p-nitroanilide. The method, then: Rats received 0.01 mg of E. coli lipopolysaccharide (LPS) or only a vehicle of saline injected in a volume of 10 μl into the maxillary and mandibular labial gingiva on alternate days for a period of six days. Two sets of rats also received 2 mg or 5 mg CMT-3 daily in a volume of 1 ml, administered by oral gavage, for the six day period, while the other sets of rats received only the vehicle of 2% carboxymethylcellulose. At the end of the six day treatment period, the animals were sacrificed and the gingival tissues were dissected. The tissues from each experimental group were pooled, frozen and thawed, and extracted for assays of enzymatic activity according to the procedure of Yu et al. (Z. Yu, N. S. Ramamurthy, M. Leung, K. M. Chang, T. F. McNamara, and L. M. Golub, "Chemically Modified Tetracycline Normalizes Collagen Metabolism in Diabetic Rats," J. Periodont. Res. 28, 420-428 (1993)). Leukocyte elastase activity was assayed using the substrate succinyl-Ala-Ala-Ala-p-nitroanilide according to the procedure of Ramamurthy and Golub (1983) (N. S. Ramamurthy, and L. M. Golub, "Diabetes Increases Collagenase Activity in Extracts of Rat Gingiva and Skin," J. Periodont. Res. 18, 23-30 (1983)). The finding reported here is the capacity of orally administered CMT-3 to reduce the level of leukocyte elastase activity in the gingival extracts of LPS-injected rats. […]

For assay [6], the target named is T2, human leukocyte elastase (HLE). As to the kind of experiment: HLE amidolytic activity (methoxysuccinyl-Ala-Ala-Pro-Val-p-nitroanilide). Type of assay: biochemical. The source says: This oligopeptide is generally assumed to occupy the first five subsites of the extended substrate binding domain in HLE.
To avoid time-dependent adsorption of HLE onto the wells of the 96-well microplates used in the amidolytic assays, the plates were pretreated with a solution of 0.2% bovine serum albumin. […] The […] concentration at which the Dixon plots intersect is a measure of Ki for the inhibitor.
The inhibitory activity of doxycycline towards amidolysis of methoxysuccinyl-Ala-Ala-Pro-Val-p-nitroanilide by HLE was also determined in the presence of 2% DMSO and no detergent, as described above for CMT-3.

“Also recorded” adds a separate entry of the source. Where two headings read alike, the source gives them in different places.

With `NC(=O)C1=C(O)C2(O)C(=O)C3=C(O)c4c(O)cccc4CC3CC2CC1=O` (stereo not drawn) [CMT-3, 6-demethyl-6-deoxy-4-de(dimethylamino)tetracycline], on leukocyte elastase [1], the “leukocyte elastase inhibitory activity, in words” value is listed as “substantial leukocyte elastase inhibitory activity”. Also, the “inhibition of HLE-mediated degradation of ECM, in words” value in assay [2] (FIG. 2: 25 μM CMT-3, 10 μM purified HLE, compared with PMN, other tetracyclines at comparable doses) was “comparable inhibition of human neutrophil-mediated and human leukocyte elastase-mediated degradation of extracellular matrix; also recorded: comparable to that determined from the assays of HLE amidolytic activity”. The IC50 in assay [2] (purified HLE rather than live neutrophils, read-out: apparent I50, ECM degradation mediated by purified HLE) was 25 to 50 µM. Moreover, in assay [3], the “inhibitory potency, HLE amidolytic activity, in words” value is given as “markedly reduced”. For the same compound, the “inhibition of neutrophil-mediated ECM degradation” value in assay [4] is ~ 50%; in assay [4] (25-50 μM, dose response studies) it was “approximately 50%”. The “capacity to inhibit ECM degradation (protecting the ECM from neutrophil-mediated destruction), in words” value in assay [4] (30 μM, FIG. 1) is on record as “far superior to other tetracyclines in protecting the ECM from neutrophil-mediated destruction”. In addition, the “inhibition of ECM degradation, in words” value in assay [4] (5-50 μM, Table 1 and FIG. 1) is “good inhibition of ECM degradation at all doses employed in this assay”. Also, in assay [4] (Homo sapiens, Neutrophil, 5 μm, control = hydrolysis in absence of any inhibitor normalized to 100%, 6 h at 37° C.), the activity at 5 µM was found to be 69%. For the same compound, in assay [4] (Homo sapiens, Neutrophil, 25 μm, control = hydrolysis in absence of any inhibitor normalized to 100%, 6 h at 37° C.), the activity at 25 µM stood at 55%. Also, the activity at 50 µM in assay [4] (Homo sapiens, Neutrophil, 50 μm, control = hydrolysis in absence of any inhibitor normalized to 100%, 6 h at 37° C.) came to 50%. Besides, in the assay on leukocyte elastase [5], the “leukocyte elastase activity in gingival extracts, in words” value is recorded as “reduced the activity of leukocyte elastase; also recorded: to the levels detected in animals receiving gingival injections of saline solution alone”. Besides, the Ki in assay [6] (2% DMSO, no detergent, 100 μM through 300 μM substrate, Dixon plot, read-out: Ki for inhibition of amidolytic activity of HLE) was in the range of 25 to 40 µM; in assay [6] (Dixon and Cornish-Bowden plots, FIGS. 3-5, read-out: apparent K1, inhibition of amidolysis), 18 to 40 µM. Also, in assay [6] (Dixon and Cornish-Bowden plots), the “mechanism of inhibition of HLE amidolytic activity” value is recorded as “predominantly competitive inhibitor”.
